Assay [1] concerns Na+ dependent amino acid transporter. The assay can be described thus: In vitro assay on Na+ dependent amino acid transporter using Cos 7 cells (Test Example 10). Format: cell-based. As to conditions: [3H] alanine 8 μM, 37° C., 60 minutes, read-out: IC50 (μM) against alanine transporter. As to the method: In Vitro Assay of Effects of Compounds on Na^+ Dependent Amino Acid Transporter and Na^+ Dependent Water-Soluble Vitamin Transporter Using Cos 7 Cells
In this test example, the in vitro assays of the compound on various transporters using Cos 7 cells were carried out according to the method described in Published Translation of Japanese Patent Application No.10-503830.
That is, […] of Cos 7 cells were inoculated on a 24-well cell plate. Two days later, the cells were washed once with an assay buffer, Hank's buffer solution containing 25 mM glucose and with 10 mM HEPES (ph 7.4), and then the buffer was replaced by an assay buffer to which the test compound was added. After adding to this, [^3H] alanine (trade name; NET-348, manufactured by DAIICHI CHEMICAL CO., LTD.), [^3H] leucine (trade name: NET-460, manufactured by DAIICHI CHEMICAL CO., LTD.), [^3H] phenylalanine (trade name: MT903, MORAVEK), [^3H] methionine (trade name: MT862, MORAVEK), [^3H] lysine (trade name: MT909, MORAKEK), or [^3H] choline (trade name: TRK593, […] BIOSCIENCES CO., LTD.) to a final concentration of 8 μM, the mixture was incubated at 37° C. for 60 minutes to allow Cos 7 cells to incorporate them. […] Measurement of the radioactivity was carried out by introducing the lyzate in 4 ml of liquid scintillation cocktail, stirring the mixture well, and then measuring on a liquid scintillation counter. […]

The next assay concerns the target T1, rat IBAT (Rattus norvegicus, UniProt Q62633).
T1 construct: expressed in transfected cells; host or cells: Cos 7
T1 sequence (Q62633 1-348): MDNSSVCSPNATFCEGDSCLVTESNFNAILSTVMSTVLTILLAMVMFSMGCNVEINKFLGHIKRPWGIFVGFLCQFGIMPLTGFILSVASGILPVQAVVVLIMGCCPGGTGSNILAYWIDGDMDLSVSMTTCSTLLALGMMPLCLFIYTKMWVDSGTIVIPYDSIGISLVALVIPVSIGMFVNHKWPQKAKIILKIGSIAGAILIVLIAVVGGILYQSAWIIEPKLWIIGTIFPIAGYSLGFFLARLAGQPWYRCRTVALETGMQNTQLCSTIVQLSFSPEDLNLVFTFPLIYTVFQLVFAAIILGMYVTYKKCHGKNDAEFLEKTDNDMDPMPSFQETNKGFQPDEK
The assay is described as follows: In vitro assay of temporarily expressed rat IBAT transporter using Cos 7 cells (Test Example 8). The assay is classed as cell-based. As to conditions: Cos 7 cells temporarily expressing rat IBAT; [3H] taurocholate 8 μM, 37° C., 60 minutes. As to the method:
In Vitro Assay of Compounds Which Inhibit Temporarily Expressed Human IBAT Transporter or Rat IBAT Transporter Using Cos 7 Cells
In this test example, the in vitro assay of the compounds which inhibit temporarily expressed human IBAT transporter or rat IBAT transporter using Cos cells was carried out according to the method described in Am. J. Physiol., 274, G157-169.
That is, […] Cos 7 were inoculated on a 24-well cell plate. One day later, 0.3 μg per well of cDNA of a human IBAT or a rat IBAT was transfected by using FuGENE6 (manufactured by ROCHE PHARMACEUTICAL CO., LTD.). For the assay, the cells cultured for one day after the transfection were used and the following procedure was followed. The cells were washed once with an assay buffer, Hank's buffer solution containing 25 mM glucose and with 10 mM HEPES (pH 7.4), and then the assay buffer was replaced by an assay buffer to which the test compound was added. After adding [^3H] taurocholate to a final concentration of 8 μM, the cells were incubated at 37° C. for 60 minutes. [^3H] taurocholate was allowed to be incorporated in Cos 7 cells through human IBAT or rat IBAT. The reaction was stopped by washing twice with a buffer prepared by adding 1 mM taurocholate to the assay buffer and lyzing the cells with 0.2M NaOH. Measurement of radioactivity was carried out by introducing the cell lyzate in 4 ml of liquid scintillation cocktail, stirring the mixture well, and then measuring the radioactivity by a scintillation counter.

For assay [2], the system named is bile acid loaded rats without partial ligation surgery. The assay can be described thus: Cholestasis-caused hepatopathy model, bile acid loading without partial ligation, protocol B (Test Example 5). Format: in vivo, rat. As to conditions: 0.1 mg/kg twice a day 3.5 days, distilled water, average ± standard error. As to the method:
“Cholestasis-Caused Hepatopathy” Model (Bile Duct Partial Ligation Model)
The “cholestasis-caused hepatopathy” model by partial ligation surgery of bile duct in this test example was handled by referring to the method by Kanno et al. [Kanzo (Liver) 43 Suppl (1): A126, 2002].
That is, the abdomen of a 7 to 10 weeks old SD (IGS) male rat was cut open under anesthesia with pentobarbital and partial ligation surgery of the bile duct was carried out. A blood sample was taken from the femoral vein before the surgery and this was taken as pre-administration value. The test compound and 200 mg/kg of bile acid were forcibly orally administered twice a day for 3.5 days from the next day of the surgery (protocol A). The test compound and 200 mg/kg of bile acid were forcibly orally administered twice a day for 3.5 days without carrying out the partial ligation surgery (protocol B). In both the cases, the test compound was dissolved or suspended in distilled water or an aqueous solution of 1% HCO60 (manufactured by NIPPON CHEMICALS COMPANY, LTD.). […] Moreover, to consider the influence of the surgery, a pseudo operation group (a Sham group) was established as necessary. After 6 hours from the administration of the drug on the last day of the test, a blood sample was taken from the abdominal aorta and AST (GOT), ALT (GPT), and ALP in the blood were measured by using a measurement kit (GOTII-HA TEST WAKO, GPTII-HA TEST WAKO, and ALKALINE PHOSPHER-HA TEST WAKO respectively, all manufactured by WAKO PURE CHEMICAL […], LTD.) with an auto analyzer (NITTECH ANALYZER SUPER Z818).

The values below come from patent US7803792B2, “Quaternary ammonium compounds” (Asahi Kasei Pharma Corporation, priority 2002, dated 2010).

pIC50: −log10 of the molar value.

As to `CCCCC1(CCCC)CS(=O)(=O)c2ccc(N(C)C)cc2C(c2cccc(NC(=S)CCCCC[N+]34CCC(CC3)CC4)c2)N1.[Br-]` (stereo not drawn) [Example 1, 1-{5-[3-(3,3-Dibutyl-7-dimethylamino-1,1-dioxo-2,3,4,5-tetrahydro-1,4-benzothiazepin-5-yl)phenylthiocarbamoyl]pentyl}-1-azoniabicyclo[2.2.2]octane bromide], the 50% inhibitory concentration (IC50) (usually the concentration needed to halve the response being measured) in assay [1] came to 33 µM. The pIC50 (in general, −log10 of the IC50, conventionally taken in molar units) against rat IBAT was 8.15. This molecule also showed an ALT in assay [2] (control 82 ± 17) of 53 ± 6 IU/L. Besides, the AST in assay [2] (control 157 ± 35) stood at 100 ± 2 IU/L. In addition, the ALP in assay [2] (control 593 ± 77) is 453 ± 50 IU/L.

`CCCCC1(CCCC)CS(=O)(=O)c2ccc(N(C)C)cc2C(c2cccc(NC(=S)Nc3ccc(C[N+](C)(C)Cc4ccccc4)cc3)c2)N1.[Br-]` (stereo not drawn) [Example 3440] showed a pIC50 against rat IBAT of 8.00.
